Experiments:
[1] = target: T1, Estrogen receptor (Homo sapiens, UniProt P03372); experiment: Binding affinity to human recombinant ERalpha by competitive fluorometric binding assay
T1 sequence (P03372 whole entry): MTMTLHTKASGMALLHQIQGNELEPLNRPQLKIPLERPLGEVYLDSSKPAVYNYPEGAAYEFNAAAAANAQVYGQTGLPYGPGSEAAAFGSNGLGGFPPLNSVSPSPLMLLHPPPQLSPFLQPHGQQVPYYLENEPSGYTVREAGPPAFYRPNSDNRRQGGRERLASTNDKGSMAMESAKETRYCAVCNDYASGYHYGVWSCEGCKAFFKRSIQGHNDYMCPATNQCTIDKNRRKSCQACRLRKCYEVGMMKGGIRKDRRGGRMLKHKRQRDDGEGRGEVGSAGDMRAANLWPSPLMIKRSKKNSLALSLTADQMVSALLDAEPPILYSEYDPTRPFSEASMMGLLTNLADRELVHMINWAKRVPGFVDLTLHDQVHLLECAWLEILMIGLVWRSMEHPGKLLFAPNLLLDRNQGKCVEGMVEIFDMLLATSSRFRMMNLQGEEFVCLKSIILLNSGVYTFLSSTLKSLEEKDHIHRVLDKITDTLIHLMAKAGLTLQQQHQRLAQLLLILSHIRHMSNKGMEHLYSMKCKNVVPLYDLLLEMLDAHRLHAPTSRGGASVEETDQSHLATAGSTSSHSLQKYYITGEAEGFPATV

[2] = target: Estrogen receptor beta (Homo sapiens, UniProt Q92731)
Description: Binding affinity to human recombinant ERbeta by competitive fluorometric binding assay

[3] = test system: Chorioallantoic membrane; experiment: Anti-angiogenesis activity in chicken embryo chorioallantonic membrane measured after 2 hrs by CAM assay; format: functional; conditions: Gallus gallus
[4] = test system: MDA-MB-231; experiment: cells; conditions: Homo sapiens, MDA-MB-231, 24 h
Description: Antiproliferative activity against human MDA-MB-231 cells assessed as cell viability after 24 hrs by MTT assay

[5] = test system: MCF7; experiment: cells; conditions: Homo sapiens, MCF7, 24 h
Description: Antiproliferative activity against human MCF7 cells assessed as cell viability after 24 hrs by MTT assay

[6] = test system: HEK293; experiment: Cytotoxicity against human HEK293 cells assessed as cell viability after 24 hrs by MTT assay; format: functional, cell-based; conditions: HEK293, 24 h
[7] = Selectivity index, ratio of IC50 for human recombinant ERbeta to human recombinant ERalpha

Chain of Estrogen receptor beta (Q92731 whole entry): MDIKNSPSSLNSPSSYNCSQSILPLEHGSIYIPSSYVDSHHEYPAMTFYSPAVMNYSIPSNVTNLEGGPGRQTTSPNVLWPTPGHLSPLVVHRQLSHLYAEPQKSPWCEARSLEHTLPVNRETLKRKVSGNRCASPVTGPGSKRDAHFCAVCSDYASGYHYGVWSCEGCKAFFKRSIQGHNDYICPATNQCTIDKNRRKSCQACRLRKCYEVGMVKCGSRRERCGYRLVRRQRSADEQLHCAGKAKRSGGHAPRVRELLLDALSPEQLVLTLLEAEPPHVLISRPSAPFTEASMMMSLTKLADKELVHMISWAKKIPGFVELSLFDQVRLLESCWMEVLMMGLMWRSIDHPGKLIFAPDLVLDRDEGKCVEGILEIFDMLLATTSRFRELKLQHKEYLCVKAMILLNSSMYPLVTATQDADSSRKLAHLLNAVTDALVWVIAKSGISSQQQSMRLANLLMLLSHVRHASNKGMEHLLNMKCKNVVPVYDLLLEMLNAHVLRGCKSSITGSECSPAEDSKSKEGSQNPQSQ

Compound | IC50 [1] [µM] | IC50 [2] [µM] | IC50 [3] [µM] | IC50 [4] [µM] | IC50 [5] [µM] | IC50 [6] [µM] | Ratio IC50 [7]
CN1C(=O)NC(c2ccc(O)cc2)C2=C1c1ccccc1C2=O (stereo not given) | 36.1 | > 10 | – | – | – | – | –
CN(Cc1cnc2nc(N)nc(N)c2n1)c1ccc(C(=O)N[C@@H](CCC(=O)O)C(=O)O)cc1 [METHOTREXATE] | – | – | 3.65 | – | – | – | –
CN1C(=O)N(CCN2CCNCC2)C(c2ccc(C(F)(F)F)cc2)C2=C1c1ccccc1C2=O (stereo not given) | 0.021 | > 10 | 19.1 | > 50 | 0.89 | 44.3 | –
CN1CCN(CCOc2ccc(C3NC(=O)N(C)C4=C3C(=O)c3ccccc34)cc2)CC1 (stereo not given) | 0.49 | > 10 | – | > 50 | 14.4 | – | –
CN1C(=O)N(N(C)CCC(Oc2ccc(C(F)(F)F)cc2)c2ccccc2)C(c2ccc(C(F)(F)F)cc2)C2=C1c1ccccc1C2=O (stereo not given) | 1.33 | > 10 | – | > 50 | 6.98 | – | –
CN1C(=O)NC(c2ccc(OCCN3CCNCC3)cc2)C2=C1c1ccccc1C2=O (stereo not given) | 0.44 | > 10 | 6.7 | > 50 | 1.02 | 37.5 | –
CN1C(=O)N(CC(F)(F)F)C(c2ccc(OCCN3CCN(CC(F)(F)F)CC3)cc2)C2=C1c1ccccc1C2=O (stereo not given) | 0.93 | > 10 | 6.94 | > 50 | 5.17 | – | –
CN1CCN(CCOc2ccc(C3C4=C(c5ccccc5C4=O)N(C)C(=O)N3CC(F)(F)F)cc2)CC1 (stereo not given) | 3.01 | > 10 | – | 28.4 | 16.1 | – | –
CN(C)CCOc1ccc(C2NC(=O)N(C)C3=C2C(=O)c2ccccc23)cc1 (stereo not given) | 3.17 | > 10 | – | 21.1 | 11.3 | – | –
CC/C(=C(\c1ccccc1)c1ccc(OCCN(C)C)cc1)c1ccccc1 [TAMOXIFEN] | – | – | – | 14.9 | 8.53 | 26.3 | 0.054
CN(CCOc1ccc(C2NC(=O)N(C)C3=C2C(=O)c2ccccc23)cc1)CCC(Oc1ccc(C(F)(F)F)cc1)c1ccccc1 (stereo not given) | 0.81 | > 10 | – | > 50 | 11.2 | – | –
CN(C)CCOc1ccc(C2C3=C(c4ccccc4C3=O)N(C)C(=O)N2CC(F)(F)F)cc1 (stereo not given) | 7.55 | > 10 | – | 31.6 | 14.3 | – | –
CN1CCN(CCN2C(=O)N(C)C3=C(C(=O)c4ccccc43)C2c2ccc(C(F)(F)F)cc2)CC1 (stereo not given) | 0.072 | > 10 | – | > 50 | 1.48 | 38.5 | –
CN1C(=O)NC(c2ccc(C(F)(F)F)cc2)C2=C1c1ccccc1C2=O (stereo not given) | 29.6 | > 10 | – | – | – | – | –
CN1C(=O)NC(c2ccc(OCCN(CCO)CCO)cc2)C2=C1c1ccccc1C2=O (stereo not given) | 0.0071 | 0.53 | 3.52 | > 50 | 0.07 | > 50 | –
CN1C(=O)NC(c2ccc(OCCN3CCN(CC(F)(F)F)CC3)cc2)C2=C1c1ccccc1C2=O (stereo not given) | 1.29 | > 10 | – | > 50 | 6.25 | – | –
CN1C(=O)N(CCN(CCO)CCO)C(c2ccc(C(F)(F)F)cc2)C2=C1c1ccccc1C2=O (stereo not given) | 0.004 | 0.31 | 0.86 | > 50 | 0.081 | > 50 | –
CN(C)CCN1C(=O)N(C)C2=C(C(=O)c3ccccc32)C1c1ccc(C(F)(F)F)cc1 (stereo not given) | 2.09 | > 10 | – | > 50 | 13.2 | – | –
